The MIC is the smallest concentration in the dilution series that meets the test's criterion for growth inhibition. One may read the IC50 as the concentration that gives 50% inhibition. Low values mean higher potency, high ones lower potency. One may read the ED50 as the midpoint of the dose-response relation. A low value points to greater potency.

Data on 15 compounds can be found in ChEMBL document CHEMBL1127350, “The squalestatins: novel inhibitors of squalene synthase. Enzyme inhibitory activities and in vivo evaluation of C1-modified analogues” (J Med Chem, 1994).

Converted amounts (≈) assume the structure as drawn. “And” between values parts separate entries of the source, which are not always exact repeats. Identical values can stand only once.

One test concerns Aspergillus niger. The test can be described thus: Compound was tested for an antifungal whole cell assay to obtain minimum inhibitory concentration against Aspergillus niger 48238. The class given is functional.
For another test, the system named is Cryptococcus neoformans. Nature of the test: Compound was tested for an antifungal whole cell assay to obtain minimum inhibitory concentration against Cryptococcus neoformans 2867E. The class given is functional.
For a further test, the target named is T1, Squalene synthase (Rattus norvegicus, UniProt Q02769).
T1 sequence (Q02769 whole entry): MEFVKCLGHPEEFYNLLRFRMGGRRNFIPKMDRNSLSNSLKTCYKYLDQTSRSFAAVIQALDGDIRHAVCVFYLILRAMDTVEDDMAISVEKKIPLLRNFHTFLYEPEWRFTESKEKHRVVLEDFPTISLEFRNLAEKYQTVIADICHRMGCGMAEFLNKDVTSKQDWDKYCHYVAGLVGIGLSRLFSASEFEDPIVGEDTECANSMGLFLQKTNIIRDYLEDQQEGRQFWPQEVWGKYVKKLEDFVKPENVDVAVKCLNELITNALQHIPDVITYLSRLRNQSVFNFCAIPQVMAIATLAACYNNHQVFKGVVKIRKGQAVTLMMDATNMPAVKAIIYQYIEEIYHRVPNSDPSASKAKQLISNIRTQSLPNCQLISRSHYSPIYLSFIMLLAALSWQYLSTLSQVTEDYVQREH
The test can be described thus: Inhibition of juvenile male rat liver microsomal squalene synthase. (Liver microsomes are vesicles of endoplasmic reticulum, rich in cytochrome P450 enzymes.)

A further test concerns Candida albicans. Nature of the test: Compound was tested for an antifungal whole cell assay to obtain minimum inhibitory concentration against Candida albicans C316. It is filed as functional.
Test [1] can be described thus: Compound was tested on serum cholesterol levels in marmosets after 7 days at 1(mg/kg/day) intravenous administration in 6 animals. The class given is functional, Callitrichinae.
The nature of test [2]: Compound was tested on serum cholesterol levels in marmosets after 2 days at intravenous 1 (mg/kg) dose in 6 animals. The class given is functional, Callitrichinae.
A short description of test [3]: Compound was tested on serum cholesterol levels in marmosets after 3 days at intravenous 0.33 (mg/kg) dose in 6 animals. It is filed as functional, Callitrichinae.
A short description of test [4]: Compound was tested on serum cholesterol levels in marmosets after 7 days at 1(mg/kg/day) intravenous administration in 8 animals. The class given is functional, Callitrichinae.
A short description of test [5]: (§1) Compound was tested on serum cholesterol levels in marmosets after 7 days at intravenous 0.11 (mg/kg) dose in 6 animals. It is filed as functional, Callitrichinae.
The next test concerns Rattus norvegicus. The test can be described thus: Tested for inhibition of cholesterol biosynthesis by intravenous administration to rats. It is filed as functional.
Test [6] in a line: as §1. It is filed as functional, Callitrichinae. This is another data set of the same source.
The mark [7] stands for this setting: Aspergillus niger, read-out: MIC.
The mark [8] stands for this setting: Cryptococcus neoformans, read-out: MIC.
[9] abbreviates: Candida albicans, read-out: MIC.

Consider `CC(CC[C@]12O[C@H](C(=O)O)[C@@](O)(C(=O)O)[C@](C(=O)O)(O1)[C@H](O)[C@H]2O)C[C@@H](C)Cc1ccccc1` (stereo not given in full), for which the MIC in the test with Aspergillus niger (setting [7]), in the test with Cryptococcus neoformans (setting [8]) and with Candida albicans (setting [9]) was 125 µg/mL (≈ 259 µM) each time. At Squalene synthase, this compound came in with an IC50 of 415 nM.

As to `C=C(CC[C@]12O[C@H](C(=O)O)[C@@](O)(C(=O)O)[C@](C(=O)O)(O1)[C@H](O)[C@H]2O)[C@H](OC(C)=O)[C@@H](C)Cc1ccccc1`, the MIC in the test on Aspergillus niger (setting [7]), in the test with Cryptococcus neoformans (setting [8]) and in the test with Candida albicans (setting [9]) was above 125 µg/mL in each case. In addition, the Cholesterol reduction in [1] stood at 56%.

Consider `CC[C@H](C)C[C@H](C)CCC(=O)O[C@@H]1[C@@H](O)[C@@]2(CCC(C)C[C@@H](C)Cc3ccccc3)O[C@H](C(=O)O)[C@@](O)(C(=O)O)[C@]1(C(=O)O)O2` (stereo not given in full), for which the MIC turned out to be 16 µg/mL (≈ 25.1 µM) in the test with Aspergillus niger (setting [7]), 1 µg/mL (≈ 1.57 µM) in the test on Cryptococcus neoformans (setting [8]) and 31 µg/mL (≈ 48.7 µM) in the test with Candida albicans (setting [9]).

`CC(=O)O[C@@H](C(C)CC[C@]12O[C@H](C(=O)O)[C@@](O)(C(=O)O)[C@](C(=O)O)(O1)[C@H](O)[C@H]2O)[C@@H](C)Cc1ccccc1` (stereo not given in full): the MIC in the test with Aspergillus niger (setting [7]), in the test with Cryptococcus neoformans (setting [8]) and in the test on Candida albicans (setting [9]) was 125 µg/mL (≈ 231 µM) throughout.

For the compound `C=C(CC[C@]12O[C@H](C(=O)O)[C@@](O)(C(=O)O)[C@](C(=O)O)(O1)[C@H](O)[C@H]2O)[C@H](O)[C@@H](C)Cc1ccccc1`, the MIC with Aspergillus niger (setting [7]), with Cryptococcus neoformans (setting [8]) and in the test on Candida albicans (setting [9]) was 62 µg/mL (≈ 125 µM) throughout. This compound also returned an IC50 on Squalene synthase of 252 nM.

For the compound `C/C(=C\[C@@H](C)Cc1ccccc1)CC[C@]12O[C@H](C(=O)O)[C@@](O)(C(=O)O)[C@](C(=O)O)(O1)[C@H](O)[C@H]2O`, on Squalene synthase, the midpoint of inhibition, the IC50, lay at 200 nM.

Turning to `CC[C@H](C)C[C@H](C)/C=C/C(=O)O[C@@H]1[C@@H](O)[C@@]2(CC/C(C)=C/[C@@H](C)Cc3ccccc3)O[C@H](C(=O)O)[C@@](O)(C(=O)O)[C@]1(C(=O)O)O2`, the MIC in the test with Aspergillus niger (setting [7]) was found to be 16 µg/mL (≈ 25.3 µM); in the test on Cryptococcus neoformans (setting [8]), 4 µg/mL (≈ 6.32 µM); in the test with Candida albicans (setting [9]), 31 µg/mL (≈ 49 µM). It took 32 nM to reach half-maximal inhibition at Squalene synthase (IC50).

With `C=C(CC[C@]12O[C@H](C(=O)O)[C@@](O)(C(=O)O)[C@](C(=O)O)(O1)[C@H](OC(=O)CC[C@@H](C)C[C@@H](C)CC)[C@H]2O)[C@H](OC(C)=O)[C@@H](C)Cc1ccccc1`, the values for the MIC in the test with Aspergillus niger (setting [7]), in the test with Cryptococcus neoformans (setting [8]) and with Candida albicans (setting [9]) were 1 µg/mL (≈ 1.44 µM), 0.1 µg/mL (≈ 0.144 µM) and 8 µg/mL (≈ 11.5 µM), respectively. The Cholesterol reduction in test [1] came to 72%. For the same compound, 13 nM corresponded to half-maximal inhibition on Squalene synthase (IC50).

As for `C=C(CC[C@]12O[C@H](C(=O)O)[C@@](O)(C(=O)O)[C@](C(=O)O)(O1)[C@H](OC(=O)/C=C/[C@@H](C)C[C@@H](C)CC)[C@H]2O)[C@H](O)[C@@H](C)Cc1ccccc1`, the MIC in the test on Aspergillus niger (setting [7]) is 16 µg/mL (≈ 24.7 µM); in the test on Cryptococcus neoformans (setting [8]), 1 µg/mL (≈ 1.54 µM); in the test on Candida albicans (setting [9]) it was 125 µg/mL (≈ 193 µM). This compound had a Cholesterol reduction in test [1] of 59%.

Take `CC[C@H](C)C[C@H](C)CCC(=O)O[C@@H]1[C@@H](O)[C@@]2(C/C=C(\C)[C@H](OC(C)=O)[C@@H](C)Cc3ccccc3)O[C@H](C(=O)O)[C@@](O)(C(=O)O)[C@]1(C(=O)O)O2`: the MIC in the test on Aspergillus niger (setting [7]) came out at 31 µg/mL (≈ 44.7 µM); in the test on Cryptococcus neoformans (setting [8]) it was 8 µg/mL (≈ 11.5 µM); in the test with Candida albicans (setting [9]), 125 µg/mL (≈ 180 µM). The IC50 against Squalene synthase worked out at 22 nM.

On to `CC[C@H](C)C[C@H](C)CCC(=O)O[C@@H]1[C@@H](O)[C@@]2(CCC(C)[C@H](O)[C@@H](C)Cc3ccccc3)O[C@H](C(=O)O)[C@@](O)(C(=O)O)[C@]1(C(=O)O)O2` (stereo not given in full), for which the MIC in the test with Aspergillus niger (setting [7]) came out at 31 µg/mL (≈ 47.5 µM); with Cryptococcus neoformans (setting [8]), 8 µg/mL (≈ 12.3 µM); in the test on Candida albicans (setting [9]) it was 125 µg/mL (≈ 192 µM).

Consider `C=C(CC[C@]12O[C@H](C(=O)O)[C@@](O)(C(=O)O)[C@](C(=O)O)(O1)[C@H](OC(=O)/C=C/[C@@H](C)C[C@@H](C)CC)[C@H]2O)[C@H](OC(C)=O)[C@@H](C)Cc1ccccc1`, for which the figures for the MIC with Aspergillus niger (setting [7]), with Cryptococcus neoformans (setting [8]) and in the test with Candida albicans (setting [9]) were 16 µg/mL (≈ 23.2 µM), 0.5 µg/mL (≈ 0.724 µM) and 8 µg/mL (≈ 11.6 µM), respectively. For the same compound, the Cholesterol reduction is 47% and 53% and 60% in test [2]; 53% and 63% and 62% in [3]; 86% in test [4]; 37% and 41% in test [5]; 39% in test [6]. In the test with Rattus norvegicus, this compound registered an ED50 of 0.1 mg/kg.

Consider `CC[C@H](C)C[C@H](C)/C=C/C(=O)O[C@@H]1[C@@H](O)[C@@]2(C/C=C(\C)CC(C)Cc3ccccc3)O[C@H](C(=O)O)[C@@](O)(C(=O)O)[C@]1(C(=O)O)O2` (single isomer, unassigned), for which the figures for the MIC with Aspergillus niger (setting [7]), in the test on Cryptococcus neoformans (setting [8]) and with Candida albicans (setting [9]) were 31 µg/mL (≈ 49 µM), 2 µg/mL (≈ 3.16 µM) and 31 µg/mL (≈ 49 µM), respectively. The compound also came in with an IC50 on Squalene synthase of 65 nM.

For `CC[C@H](C)C[C@H](C)CCC(=O)O[C@@H]1[C@@H](O)[C@@]2(CCC(C)[C@H](OC(C)=O)[C@@H](C)Cc3ccccc3)O[C@H](C(=O)O)[C@@](O)(C(=O)O)[C@]1(C(=O)O)O2` (stereo in doubt; 2d), the MIC was determined as 8 µg/mL (≈ 11.5 µM) in the test on Aspergillus niger, 0.5 µg/mL (≈ 0.72 µM) in the test on Cryptococcus neoformans and 16 µg/mL (≈ 23 µM) in the test with Candida albicans. The compound further yielded an IC50 against Squalene synthase of 3 nM.

`CC[C@H](C)C[C@H](C)CCC(=O)O[C@@H]1[C@@H](O)[C@@]2(CCC(C)[C@H](OC(C)=O)[C@@H](C)Cc3ccccc3)O[C@H](C(=O)O)[C@@](O)(C(=O)O)[C@]1(C(=O)O)O2` (stereo in doubt; 2f): the MIC is 125 µg/mL (≈ 180 µM) in the test with Aspergillus niger, 4 µg/mL (≈ 5.76 µM) against Cryptococcus neoformans and 125 µg/mL (≈ 180 µM) with Candida albicans. The compound further returned an IC50 on Squalene synthase of 165 nM.
